Data on one molecule can be found in US20260337187A1, “COMPOUNDS FOR TREATMENT OF INFLAMMATORY PROCESSES” (THORNE LIMITED, priority 2022, published 2026).

Read-outs that look alike come from different tables or passages of the source.

What all share (type): cell-based
Assay [1] deals with human primary neutrophils. In words: Neutrophil ROS production (fMLP triggered, DHR-123, FACS). As for the experimental part: The effect of 4 different concentrations (from left to right: 100, 50, 20 and 10 μM) of B2 is shown. Each symbol represents one experiment.
Neutrophil ROS production: Neutrophil reactive oxygen species (ROS) production was measured on human primary neutrophils, isolated from fresh blood samples using the MACSexpress™ neutrophil kit as described in the manufacturer's instructions (Miltenyi Biotec Inc.). Neutrophils in RPMI containing 50 μm dihydrorhodamine 123 (DHR-123) were triggered to produce ROS by treatment with 20 μm bacterial peptide N-formylmethionyl-leucyl-phenylalanine (fMLP) as a physiologically relevant stimulant. ROS were measured by FACS based on the conversion of DHR-123 to Rhodamine-123.
To investigate the effect of neutrophil ROS production by B2, human primary neutrophils, isolated from fresh blood samples, were triggered to produce reactive oxygen species (ROS) by treatment with the bacterial peptide N-formylmethionyl-leucyl-phenylalanine (fMLP) as a physiologically relevant stimulant and ROS were measured by FACS based on the conversion of dihydrorhodamine 123 to rhodamine 123. The effect of 4 different concentrations of B2 is shown (FIG. 2).

In assay [2] the test system is human primary eosinophils. Put plainly: Eosinophil ROS production (PMA triggered, DHR-123, FACS). Conditions: FIG. 7 (100, 50, 25 μM). As for the experimental part:
The effect of 3 different concentrations (from right to left: 100, 50 and 25 μM) of B2 is shown in comparison to control (far left) and ROS triggered control (PMA; second from left); average of 3 experiments.
Eosinophil ROS production: Human primary eosinophils were purified from buffy coat, firstly by density gradient centrifugation on ficoll to isolate total peripheral blood mononuclear cell (PBMC), and then by negative selection using the eosinophil purification kit from Miltenyi Inc. as per manufacturer's instructions. The eosinophils were then resuspended in pre-warmed tissue culture media, which had been left in the incubator overnight to equilibrate, containing 25 μM dihydrorhodamine 123 (DHR-123) at a cell density of 1×10^6 cells/ml. The cells were then stimulated with phorbol 12-myristate 13-actetate (PMA) at a concentration of 1 μM in the presence or absence of B2 or DMSO for control in the incubator for 20 minutes and then immediately put on ice to stop the reaction. Levels of the oxidized DHR in the samples were measured by flow cytometry as described above in relation to neutrophil ROS production.
To investigate inhibition of eosinophil ROS production by B2, human primary eosinophils, isolated from fresh blood samples, were triggered to produce ROS by treatment with PMA, and ROS measured by FACS based on the conversion of dihydrorhodamine 123 to rhodamine 123 (FIG. 7).

The next assay has as its system human primary mast cells. Put plainly: Mast cell degranulation (Lamp-1/CD107a by FACS). To be noted: IgE/anti-IgE; FIG. 6 (100, 50, 20 μM). The method, then:
Three different concentrations of B2 were tested (from left to right: 100, 50 and 20 μM) and the average of 11 experiments is shown as % reduction in degranulation (left plot). Degranulation was also measured at 3 time points (from left to right: 30, 15 and 5 minutes) after addition of 100 μM B2 (right plot).
Mast cell degranulation: Human primary mast cells were developed in StemSpan™ SFEM including 125 ng/ml SCF and 20 ng/ml IL3 from CD34+ hematopoietic precursor cells, and their purity after 4 to 5 weeks measured by FACS for c-kit and FceRI expression. This was measured by FACS using the appearance of Lamp-1 (CD107a) in line with that previously described by Klewer et al. (2021), applied here to human primary mast cells. Degranulation was triggered by preincubation of mast cells overnight with 1.3 μg/ml IgE followed by treatment with 0.2 μg/ml anti-IgE for 30 min.
To investigate the inhibition of mast cell degranulation by B2, degranulation was measured by FACS using the appearance of Lamp-1 (CD107a) on the surface of human primary mast cells upon degranulation. Degranulation was triggered by IgE/anti-IgE and B2 was applied 30 minutes before adding IgE. Three different concentrations of B2 were tested; from left to right in FIG. 6 (left plot): 100, 50 and 20 μM. […] Degranulation was also measured at 3 time points after addition of 100 μM B2 (FIG. 6, right plot).

Assay [3] relates to Primary human pulmonary microvascular endothelial cells (HPMEC). Put plainly: Pulmonary endothelial cell cytokine release (TNFα triggered, cytokine array). Conditions: for inhibition at 50 µM: Homo sapiens, Endothelial cell, 50 μM B2, activated by TNF. The method, then: Endothelial cell cytokine release: Primary human pulmonary microvascular endothelial cells (HPMEC) were purchased from Promocell and maintained in endothelial cell media from Promocell as per the company's protocol. To measure the release of inflammatory mediators HPMEC were cultured to confluence in a 12 well plate in 1 ml of endothelial cell media. Cells were then stimulated with TNFα at 100 ng/ml overnight in the presence or absence of B2 or control DMSO. The supernatant was then collected and inflammatory mediator levels were measured in it using the Cytokine XXL array from R&D systems according to manufacturer's instructions as described above.
Human primary pulmonary endothelial cells were triggered to produce cytokines by the pro-inflammatory cytokine TNFα. The levels of 105 cytokines in the cell culture supernatant were measured by the R&D Systems Human XL cytokine array and a fluorescence-based photometric read-out. The table lists cytokines whose production was reduced by >50% (left) or 20 to 50% upon treatment with 50 μM B2 (right).

Consider `Cc1onc(-c2ccccc2Cl)c1C(=O)Nc1nc2ccc([N+](=O)[O-])cc2s1` [B2, 3-(2-chlorophenyl)-5-methyl-N-(6-nitrobenzo[d]thiazol-2-yl)isoxazole-4-carboxamide], for which the “inhibition of neutrophil ROS production” value in assay [1] (50 μM B2, fMLP) is reported as “clear inhibition of ROS production”; in assay [1] (100 μM B2, fMLP), “clear inhibition of ROS production”. Also, the “neutrophil ROS production” value in assay [1] (fMLP, concentration not given in the sentence (FIG. 2)) is on record as “substantially reduced”. Moreover, the “production of reactive oxygen species (ROS) by human primary eosinophils” value in assay [2] is listed as “reduced production”. For the same molecule, in the assay with human primary mast cells, the “IgE-mediated mast cell degranulation” value was “inhibited by B2 in IgE-mediated degranulation”. In addition, the inhibition at 50 µM in assay [3] (*Poor dose response, only minor increase with TNF, read-out: FGF19 production, reduction) is 20 to 50%; in assay [3] (read-out: CCL2/MCP-1 production, reduction) it was 20 to 50%; in assay [3] (read-out: CCL5/RANTES production, reduction) it was above 50%; in assay [3] (read-out: CCL20/MIP-3 alpha production, reduction), 20 to 50%; in assay [3] (read-out: CXCL1/GRO-alpha production, reduction) it was above 50%; in assay [3] (read-out: CXCL5/ENA-78 production, reduction), above 50%. Besides, the inhibition at 50 µM in assay [3] (read-out: CXCL10/IP10 production, reduction) is 20 to 50%; in assay [3] (read-out: GMCSF production, reduction), above 50%; in assay [3] (read-out: HGF production, reduction), above 50%; in assay [3] (read-out: ICAM-1 production, reduction), above 50%; in assay [3] (read-out: Pentraxin-3 production, reduction), 20 to 50%; in assay [3] (read-out: TFF3 production, reduction), above 50%. In assay [3] (read-out: VCAM-1 production, reduction), the inhibition at 50 µM was above 50%. In assay [3] (TNFα, Table 1), the “human pulmonary endothelial cell cytokine release profile” value is recorded as “reducing specific pro-inflammatory cytokines”. Besides, in assay [3] (TNFα, Table 1), the “secretion of several chemokines by endothelial cells” value was “substantially reduced”. For the same molecule, the “secretion of several soluble adhesion molecules by endothelial cells” value in assay [3] (TNFα, Table 1) is recorded as “reduced”. Further, the “FGF19 production, dose response” value in assay [3] (activated by TNF, footnote * to FGF19) is recorded as “*Poor dose response, only minor increase with TNF”.
